# In ChEMBL document CHEMBL1129111, “Neuroprotective (+) 3S, 4S cannabinoids with modified 5-side chain” (Bioorg Med Chem Lett, 1996):
# Key:
# Rattus norvegicus [1] = species on record: Rattus norvegicus; test: Compound was tested for the protection of neurons against NMDA toxicity at concentration of 10 uM; assay type: functional
# [2] = biological target: Glutamate NMDA receptor (Rattus norvegicus) (UniProt P35439+Q00959+Q00960+Q00961+Q62645+Q8VHN2+Q9R1M7); test: Compound was tested for its ability to inhibit [3H]- MK-801 binding to NMDA receptor in rat forebrain membranes at concentration of 100 uM; assay type: cell membranes; conditions: Membrane
# Rattus norvegicus [3] = species on record: Rattus norvegicus; test: Compound was tested for neuronal cell toxicity in cortical neuron cell cultures extracted from fetal rat brains at concentration of 10 uM; assay type: functional, Brain
# Rattus norvegicus [4] = species on record: Rattus norvegicus; test: Compound was tested for neuronal cell toxicity in cortical neuron cell cultures extracted from fetal rat brains at concentration of 20 uM; assay type: functional, Brain
# Glutamate NMDA receptor = test: Compound was tested for its ability to displace [3H]- MK-801 binding to NMDA receptor in rat forebrain membranes.; assay type: cell membranes
SMILES,Protection (Rattus norvegicus [1]) [%],inhibition [2] [%],Morbidity (Rattus norvegicus [3]) [%],Morbidity (Rattus norvegicus [4]) [%],IC50 (Glutamate NMDA receptor) [µM]
CCCC(C)(C)c1cc(O)c2c(c1)OC(C)(C)C1CC=C(CO)C[C@H]21 (some centres undefined),36,80,0,0,30
CCCCCCC(C)(C)c1cc(O)c2c(c1)OC(C)(C)C1CC=C(CO)C[C@H]21 (some centres undefined),63,90,25,–,10
CC(C)(C)c1cc(O)c2c(c1)OC(C)(C)C1CC=C(CO)C[C@H]21 (some centres undefined),24,83,15,36,30
